# Assays:
# Test in all cases: relative viability (nuclei count vs DMSO), 5 days (fraction); higher = more cells survive
# [1] = compound: CC1=CC(=NN1)NC2=CC(=NC(=N2)/C=C/C3=CC=CC=C3)N4CCN(CC4)C + CS(=O)(=O)N1CCN(Cc2cc3nc(-c4cccc5[nH]ncc45)nc(N4CCOCC4)c3s2)CC1 [Pictilisib] (partner 1 µM)
# Method in brief: (§1)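 Lung cancer cell lines in 1536-well plates got either a single drug or a fixed anchor-drug dose together with five library-drug doses (not always all listed) in √10 steps, by pin tool, on the day after seeding. Nuclei were counted after 5 days, and relative viability is the treated-to-vehicle ratio of nuclei counts. Values are medians of duplicate plates.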
# [2] = compound: CC1=CC(=NN1)NC2=CC(=NC(=N2)/C=C/C3=CC=CC=C3)N4CCN(CC4)C + Nc1ncn([C@H]2C[C@H](O)[C@@H](CO)O2)c(=O)n1 [Decitabine] (partner 2 µM)
# Method in brief: as §1
# Bortezomib + Alpelisib = compound: CC(C)C[C@H](NC(=O)[C@H](Cc1ccccc1)NC(=O)c1cnccn1)B(O)O [Bortezomib] + Cc1nc(NC(=O)N2CCC[C@H]2C(N)=O)sc1-c1ccnc(C(C)(C)C(F)(F)F)c1 [Alpelisib] (partner 2 µM)
# Method in brief: as §1
# [3] = compound: CC1=CC(=NN1)NC2=CC(=NC(=N2)/C=C/C3=CC=CC=C3)N4CCN(CC4)C + NC(=O)Nc1cc(-c2cccc(F)c2)sc1C(=O)N[C@H]1CCCNC1 [AZD7762] (partner 0.2 µM)
# Method in brief: as §1
cell line,measurement,setting,value
NCI-H650,relative viability,[1]; first compound 0.08 µM,0.763
same,relative viability,[1]; first compound 0.253 µM,0.92
same,relative viability,[1]; first compound 0.8 µM,0.93
same,relative viability,[1]; first compound 2.53 µM,0.719
same,relative viability,[1]; first compound 8 µM,0.183
same,relative viability,[2]; first compound 0.08 µM,0.314
same,relative viability,[2]; first compound 0.253 µM,0.318
same,relative viability,[2]; first compound 0.8 µM,0.287
same,relative viability,[2]; first compound 2.53 µM,0.246
same,relative viability,[2]; first compound 8 µM,0.157
same,relative viability,Bortezomib + Alpelisib; first compound 0.000632 µM,1.18
same,relative viability,Bortezomib + Alpelisib; first compound 0.002 µM,0.819
same,relative viability,Bortezomib + Alpelisib; first compound 0.006325 µM,0.355
same,relative viability,Bortezomib + Alpelisib; first compound 0.02 µM,0.182
same,relative viability,[3]; first compound 0.08 µM,1.26
same,relative viability,[3]; first compound 0.253 µM,1.02
same,relative viability,[3]; first compound 0.8 µM,1.29
same,relative viability,[3]; first compound 2.53 µM,0.736
same,relative viability,[3]; first compound 8 µM,0.187
